23 compounds from US7781183B2 (priority 2003, dated 2010) can be followed below.

The structures appear in SMILES notation. Entries after “also recorded” stand apart in the source; their conditions may differ.

anthrax lethal factor protease, sequence (P15917 34-809 limits assumed): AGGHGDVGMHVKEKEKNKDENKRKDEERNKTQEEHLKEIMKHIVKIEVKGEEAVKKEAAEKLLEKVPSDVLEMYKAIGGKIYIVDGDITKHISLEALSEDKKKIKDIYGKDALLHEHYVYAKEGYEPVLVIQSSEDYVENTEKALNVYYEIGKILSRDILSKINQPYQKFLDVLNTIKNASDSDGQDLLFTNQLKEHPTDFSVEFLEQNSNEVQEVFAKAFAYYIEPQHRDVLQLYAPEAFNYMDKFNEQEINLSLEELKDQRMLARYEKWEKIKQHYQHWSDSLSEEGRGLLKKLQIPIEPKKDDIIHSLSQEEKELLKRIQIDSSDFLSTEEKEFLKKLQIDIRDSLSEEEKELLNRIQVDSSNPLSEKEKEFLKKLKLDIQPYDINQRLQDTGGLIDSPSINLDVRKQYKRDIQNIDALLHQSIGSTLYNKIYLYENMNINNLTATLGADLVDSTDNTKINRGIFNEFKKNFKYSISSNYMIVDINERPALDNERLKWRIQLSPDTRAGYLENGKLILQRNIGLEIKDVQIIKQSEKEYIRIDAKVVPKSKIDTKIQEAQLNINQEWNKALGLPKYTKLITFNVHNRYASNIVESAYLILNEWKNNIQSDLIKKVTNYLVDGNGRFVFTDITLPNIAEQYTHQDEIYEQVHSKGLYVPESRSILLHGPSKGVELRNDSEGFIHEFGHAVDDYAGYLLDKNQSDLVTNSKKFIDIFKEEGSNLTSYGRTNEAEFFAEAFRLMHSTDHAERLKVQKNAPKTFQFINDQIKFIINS

The first assay concerns the target anthrax lethal factor protease (Bacillus anthracis, UniProt P15917). The experiment in a line: biochemical. The format is biochemical.
As a reminder, the Ki is a measure of affinity in units of concentration, obtained from inhibition or displacement. Read a low Ki as higher affinity. By inhibition is commonly meant the change of the read-out against control, counted positive when it falls. Turning to `Cc1cc(N)c2cc(NC(=O)Nc3ccc4nc(C)cc(N)c4c3)ccc2n1` [NSC 12155], the Inhibition type entry was “competitive inhibition”, the inhibitory constant (Ki) was determined as 0.5 µM, the “Km(app) with inhibitor concentration” value was “increased” and the “effect on the Vmax” value is given as “no effect”. In addition, 20 µM produced 95% inhibition and the “inhibition of LF activity (in words)” value is given as “strong inhibition”.

`N=C(N)c1ccc(Oc2ccc(-c3cc4ccc(C(=N)N)cc4[nH]3)cc2)cc1` [NSC 240898]: the “Percent Inhibition” value is listed as 72.

Consider `N=C(N)c1ccc2[nH]c(/C=C/c3cc4cc(C(=N)N)ccc4o3)cc2c1` [NSC 290107], for which the “Percent Inhibition” value was determined as 85.

For the compound `N=C(N)c1ccc2cc(/C=C/c3cc4ccc(C(=N)N)cc4o3)[nH]c2c1` [NSC 294200], the “Percent Inhibition” value turned out to be 92.

As to `C(=C\c1cc2ccc(C3=NCCN3)cc2o1)/c1cc2cc(C3=NCCN3)ccc2[nH]1` [NSC 294201], the “Percent Inhibition” value was found to be 88.

`N=C(N)c1ccc2[nH]c(/C=C/c3cc4ccc(C(=N)N)cc4o3)cc2c1` [NSC 294203]: the “Percent Inhibition” value is reported as 92.

Turning to `C(=C\c1cc2ccc(C3=NCCN3)cc2o1)/c1cc2cc(C3=NCCN3)ccc2[nH]1` [NSC 294204], the “Percent Inhibition” value was 84.

In the case of `O=C(Nc1ccc(C2=NCCN2)cc1)c1cc2ccc(C3=NCCN3)cc2[nH]1` [NSC 294206], the “Percent Inhibition” value came to 56.

For `C(=C\c1cc2ccc(C3=NCCN3)cc2o1)/c1cc2ccc(C3=NCCN3)cc2o1` [NSC 294494], the “Percent Inhibition” value is reported as 29.

On to `N=C(N)c1ccc(-c2[nH]c3cc(C(=N)N)ccc3c2N)cc1` [NSC 300509], for which the “Percent Inhibition” value came out at 46.

On to `C/C(=C\c1ccc(/C=C/c2cc3ccc(C4=NCCN4)cc3[nH]2)[nH]1)C1=NCCN1` [NSC 317880], for which the “Percent Inhibition” value came out at 93.

With `c1cc2cc(-c3ccc(-c4cc5ccc(C6=NCCN6)cc5[nH]4)cc3)[nH]c2cc1C1=NCCN1` [NSC 317881], the “Percent Inhibition” value is listed as 97.

Regarding `N=C(N)c1ccc(/C=C/c2cc3cc(C(=N)N)ccc3[nH]2)cc1` [NSC 317884], the “Percent Inhibition” value was found to be 95.

Regarding `N=C(N)c1ccc(/C=C/c2cc3ccc(C(=N)N)cc3[nH]2)cc1` [NSC 317886], the “Percent Inhibition” value is recorded as 93.

For `N=C(N)N/N=C/c1ccc(-c2cc3ccc(/C=N/NC(=N)N)cc3s2)cc1` [NSC 341909], the “Percent Inhibition” value was determined as 90.

`c1cc(-c2[nH]c3cc(C4=NCCN4)ccc3c2-c2cc3ccc(C4=NCCN4)cc3[nH]2)ccc1C1=NCCN1` [NSC 341911]: the “Percent Inhibition” value is 64.

Take `CCOc1ccc2c(N)c3ccc(/N=N/c4ccc(N)nc4N)cc3nc2c1` [NSC 354961]: the “Percent Inhibition” value is 95.

As for `Nc1ccc(/N=N/c2ccc3cc4ccc(/N=N/c5ccc(N)nc5N)cc4nc3c2)c(N)n1` [NSC 354962], the “Percent Inhibition” value is 40.

In the case of `Nc1c(/C=C/c2cc3cc(C4=NCCN4)ccc3o2)[nH]c2cc(C3=NCCN3)ccc12` [NSC 357756], the Inhibition type result is “competitive inhibition”, the Ki was found to be 4.9 ± 1.7 µM, the “Km(app) with inhibitor concentration” value is recorded as “increased” and the “effect on the Vmax” value is recorded as “no effect”. The inhibition at 20 µM worked out at 90%.

In turn, `N=C(N)c1ccc(N=Nc2cc(N=Nc3ccc(C(=N)N)cc3)c(O)cc2O)cc1` [NSC 359465] yielded an inhibition at 20 µM of 48%.

`c1cc2cc(-c3ccc4cc(-c5ccc6oc(C7=NCCN7)cc6c5)[nH]c4c3)[nH]c2cc1C1=NCCN1` [NSC 369718] displayed an inhibition at 20 µM of 90%.

As to `c1cc(-c2nc3cc(-c4nc5cc(C6=NCCN6)ccc5[nH]4)ccc3[nH]2)ccc1C1=NCCN1` [NSC 369721], the Inhibition type entry is listed as “competitive inhibition”, the inhibition constant Ki came out at 4.2 ± 0.21 µM, the “Km(app) with inhibitor concentration” value is given as “increased” and the “effect on the Vmax” value is “no effect”. The compound also gave an inhibition at 20 µM of 90%.

In the case of `c1cc(C2=NCCN2)ccc1Nc1ccc(-c2cc3ccc(C4=NCCN4)cc3[nH]2)cc1` [NSC 377362], the inhibition at 20 µM was 33%.

Another assay relates to J774A.1 cells.
Test: not given
In kind it is cell-based.
Take `Cc1cc(N)c2cc(NC(=O)Nc3ccc4nc(C)cc(N)c4c3)ccc2n1` [NSC 12155]: the “protection (in words)” value was “lower protection; also recorded: some protection”.

With `Nc1c(/C=C/c2cc3cc(C4=NCCN4)ccc3o2)[nH]c2cc(C3=NCCN3)ccc12` [NSC 357756], the protection entry is “about 96%” and the “protection (in words)” value is listed as “some protection”.

Turning to `c1cc2cc(-c3ccc4cc(-c5ccc6oc(C7=NCCN7)cc6c5)[nH]c4c3)[nH]c2cc1C1=NCCN1` [NSC 369718], the “protection (in words)” value is on record as “lower protection; also recorded: some protection”.

As for `c1cc(-c2nc3cc(-c4nc5cc(C6=NCCN6)ccc5[nH]4)ccc3[nH]2)ccc1C1=NCCN1` [NSC 369721], the “protection (in words)” value is on record as “ineffective”.
